# Source: patent US20240408085A1, “COMPOUND FOR DEGRADATION OF BCL-2 FAMILY PROTEINS AND MEDICAL APPLICATION THEREOF” (XIZANG HAISCO PHARMACEUTICAL CO., LTD., priority 2021, published 2024)
# What was measured:
# platelet (PLT) = experiment: Effect on platelet (PLT) after single intravenous injection; format: in vivo, SD rats; design: key to Effect on PLT (↓ decrease): — represents that no significant change was observed; conditions: for platelet toxicity relative to the control compound: rats
# Description: Experimental animal: 78 SD rats, with an equal number of males and females, male (♂): 290-380 g, female (♀): 220-290 g, 8-10 weeks old, purchased from Zhejiang Vital River Laboratory Animal Technology Co., Ltd.
# Experimental protocol: a clear solution was formulated using a vehicle ([…]). The animals were dosed via tail vein a single time (administration volume: 20 mL/kg; bolus injection period: about 4 minutes; recovery period: 7 days).
# MOLT-4 xenograft tumors = experiment: Growth inhibition experiment in MOLT-4 xenograft tumor models in mice; format: in vivo; conditions: two-way ANOVA and then Dunnett's test, FIG. 1
# Description: MOLT-4 cells are acute lymphoblastic leukemia cell lines in humans. The cells were purchased from ATCC and cultured in RPMI-1640+10% FBS+1% o penicillin-streptomycin solution in a 37° C., 5% CO2 incubator. When the cells were in the exponential growth phase, the cells were harvested and counted. An equal volume of matrigel was added. Female SCID Beige mice (4-6 weeks old, 14-16 g, Beijing Vital River Laboratory Animal Technology Co., Ltd.) were inoculated subcutaneously in the right flank with the cells (200 μL, containing 1×10^7 MOLT-4 cells and 50% matrigel). When the tumor volume reached 150-200 mm^3, the mice were randomly grouped for administration according to the tumor volume and body weight of the mice. Three administration dosages were provided: 5 mpk, 15 mpk and 50 mpk. The compounds were injected intraperitoneally (ip) weekly (qw). The mice in all the experimental groups (10 mice in each group) were continuously administered for 4 weeks.
# After inoculation, the body weights of the mice were measured three times a week and the long (a) and short (b) diameters of the tumors were measured. The tumor volume was calculated according to the formula: V=ab^2/2. At day 28 after the administration, the experiment was terminated.
# [1] = Pharmacokinetic test in monkeys (intravenous); format: in vivo; conditions: male, cynomolgus monkey, i.v. 2 mg/kg, plasma
# Description: Experimental animals: male cynomolgus monkeys, 3-5 kg, 3-6 years old, 2 monkeys/compound. Purchased from Suzhou Xishan Biotechnology Inc.
# Experimental method: on the day of the test, 2 monkeys were randomly grouped according to their body weights. The animals were fasted with water available for 14 to 18 h one day before the administration of a test compound, and were fed 4 hours after the administration.
# Before and after the administration, 1.0 mL of blood samples were drawn from the limb veins and placed in an EDTAK2 centrifuge tube. Centrifugation was carried out at 5000 rpm at 4° C. for 10 min, and the plasma was collected. Blood collection time points for the intravenous group were: 0, 5 min, 15 min, 30 min, 1 h, 2 h, 4 h, 6 h, 8 h, 10 h, 12 h, 24 h, and 48 h. Before analysis and detection, all samples were stored at −80° C., and a quantitative analysis of samples was performed using LC-MS/MS.
# BCL-xL proteins = biological target: T1, BCL-xL proteins (Homo sapiens, UniProt Q07817); experiment: BCL-xL degradation activity in MOLT-4 cells (western blot, 16 h); format: cell-based
# T1 construct: degradation effect on the BCL-xL proteins in MOLT-4 cells; host or cells: MOLT-4
# T1 sequence (Q07817 whole entry): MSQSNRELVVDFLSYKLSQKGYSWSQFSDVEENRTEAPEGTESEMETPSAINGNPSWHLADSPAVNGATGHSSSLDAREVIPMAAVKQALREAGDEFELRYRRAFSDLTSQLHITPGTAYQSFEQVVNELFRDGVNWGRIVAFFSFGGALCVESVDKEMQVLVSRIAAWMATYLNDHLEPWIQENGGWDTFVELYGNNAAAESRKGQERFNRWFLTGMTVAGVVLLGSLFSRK
# Description: MOLT-4 cells are acute lymphoblastic leukemia cell lines in humans. The cells were purchased from ATCC. Culture conditions: RPMI-1640+10% FBS+1% penicillin-streptomycin solution. The cells were cultured in a 37° C., 5% CO2 incubator. The cells were plated in a 12-well plate, with 2×10^5 cells/well. After plating, compounds at different concentrations were added and cultured in a 37° C., 5% CO2 incubator for 16 h. After the completion of culture, the cells were harvested and RIPA lysis buffer (beyotime, Cat. P0013B) was added. The cells were lysed on ice for 15 minutes and centrifuged at 12000 rpm at 4° C. for 10 minutes. The supernatant protein samples were collected and the protein was quantified by using the BCA kit (Beyotime, Cat. P0009). Then the protein was diluted to 0.8 mg/mL. The expressions of BCL-xL (CST, Cat. 2764S), BCL-2 (CST, Cat. 15071S) and the internal reference β-actin (CST, Cat. 3700S) were detected using a fully automated western blot quantitative analyzer (Proteinsimple). The expression level of BCL-xL or BCL-2 relative to the internal reference was calculated by using Compass software, and the DC50 value was calculated by using GraphPad Prism 8.0 software according to formula (1), wherein the Proteinadministration denoted the relative expression level of BCL-xL or BCL-2 in administration groups at different doses, and the Proteinvehicle denoted the relative expression level of BCL-xL or BCL-2 in the vehicle control group.
# Protein %=Proteinadministration/Proteinvehicle×100% formula (1)
structure (smiles),measurement,setting,value
"Cc1ncsc1-c1ccc([C@H](C)NC(=O)[C@@H]2C[C@@H](O)CN2C(=O)[C@@H](NC(=O)CCCCCC(=O)N2CCN(CC[C@H](CSc3ccccc3)Nc3ccc(S(=O)(=O)NC(=O)c4ccc(N5CCN(CC6=C(c7ccc(Cl)cc7)CCCCC6)CC5)cc4)cc3S(=O)(=O)C(F)(F)F)CC2)C(C)(C)C)cc1 [Compound 6, (2S,4R)-1-((S)-2-(7-(4-((R)-3-((4-(N-(4-(4-((2-(4-chlorophenyl)cyclohept-1-en-1-yl)methyl)piperazin-1-yl)benzoyl)sulfamoyl)-2-((trifluoromethyl)sulfonyl)phenyl)amino)-4-(phenylthio)butyl)piperazin-1-yl)-7-oxoheptanamido)-3,3-dimethylbutanoyl)-4-hydroxy-N—((S)-1-(4-(4-methylthiazol-5-yl)phenyl)ethyl)pyrrolidine-2-carboxamide]",Effect on PLT (↓ decrease),"platelet (PLT); SD rats ♀, 6 mg/kg single i.v., 4 h",—
same,Effect on PLT (↓ decrease),"platelet (PLT); SD rats ♀, 6 mg/kg single i.v., D2",↓60%
same,Effect on PLT (↓ decrease),"platelet (PLT); SD rats ♀, 20 mg/kg single i.v., 4 h",↓61%
same,Effect on PLT (↓ decrease),"platelet (PLT); SD rats ♀, 20 mg/kg single i.v., D2",↓84%
same,Effect on PLT (↓ decrease),"platelet (PLT); SD rats ♀, 60 mg/kg single i.v., D8",↓53%
same,Effect on PLT (↓ decrease),"platelet (PLT); SD rats ♂, 6 mg/kg single i.v., 4 h",↓16%
same,Effect on PLT (↓ decrease),"platelet (PLT); SD rats ♂, 6 mg/kg single i.v., D2",↓56%
same,Effect on PLT (↓ decrease),"platelet (PLT); SD rats ♂, 20 mg/kg single i.v., 4 h",↓51%
same,Effect on PLT (↓ decrease),"platelet (PLT); SD rats ♂, 20 mg/kg single i.v., D2",↓71%
same,Effect on PLT (↓ decrease),"platelet (PLT); SD rats ♂, 60 mg/kg single i.v., D8",↓17%
same,platelet toxicity relative to the control compound,"platelet (PLT); 6 mg/kg and 20 mg/kg single i.v., 4 h and D2",less platelet toxicity
same,platelet toxicity relative to the control compound,"platelet (PLT); 60 mg/kg single i.v., D8",less platelet toxicity
same,"growth inhibition on MOLT-4 xenograft tumor models, P versus the vehicle control group",MOLT-4 xenograft tumors,< 0.0001
same,AUC(0-t),[1],54600 ± 5910 ng·h/mL
same,half-life,[1],9.83 ± 2.2 h
same,DC50,BCL-xL proteins,8.4 nM
